In article PMC5803421 (International journal of pharmaceutics, 2017):

System: anesthetized acute SCI female rats (bladder pressure)
Experiment: Isovolumetric cystometry in anesthetized acute spinal cord injured rats
Type: in vivo, rat
Settings: antagonist 1 mg/kg i.v. after ODT LMN-NKA (4.6 mg/kg)

SMILES: COC1(C[S@@+]([O-])c2ccccc2)CCN(CCc2c[nH]c3ccc(F)cc23)CC1 [GR 159898]
- effect on LMN-NKA ODT mediated increase in bladder pressure: readily reversed
